Test results taken from PubChem BioAssay AID330 (DTP/NCI, 2004).
Values joined by “and” are separate entries in the source; they are usually repeats but may differ in a detail not shown here. Equal entries are not always repeated. Inconclusive results and toxic doses are left out.

Test system: P388 leukemia ip, CD2F1 mice, survival T/C
Assay: NCI In Vivo Anticancer Drug Screen. Data for tumor model P388 Leukemia (intraperitoneal) in CD2F1 (CDF1) mice
Conditions: endpoint: median survival time, higher = longer survival
Procedure, shortened: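 Mice carrying the transplanted tumor received test compound or vehicle. Survival was recorded in each group, and the value is the treated-group measurement divided by that of the vehicle-treated control group.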

[1] = dose: 50.0 mg/kg/injection, schedule: Q01DX009 (ip), vehicle: saline with Tween-80
[2] = dose: 100.0 mg/kg/injection, schedule: Q01DX009 (ip), vehicle: saline with Tween-80
[3] = dose: 50.0 mg/kg/injection, schedule: Q01DX005 (ip), vehicle: saline with Tween-80
[4] = dose: 100.0 mg/kg/injection, schedule: Q01DX005 (ip), vehicle: saline with Tween-80
[5] = dose: 200.0 mg/kg/injection, schedule: Q01DX005 (ip), vehicle: saline with Tween-80
[6] = dose: 12.5 mg/kg/injection, schedule: Q01DX009 (ip), vehicle: saline with Tween-80
[7] = dose: 25.0 mg/kg/injection, schedule: Q01DX009 (ip), vehicle: saline with Tween-80
[8] = dose: 50.0 mg/kg/injection, schedule: Q01DX005 (ip), vehicle: Klucel (hydroxypropylcellulose) (HPC)
[9] = dose: 100.0 mg/kg/injection, schedule: Q01DX005 (ip), vehicle: Klucel (hydroxypropylcellulose) (HPC)
[10] = dose: 200.0 mg/kg/injection, schedule: Q01DX005 (ip), vehicle: Klucel (hydroxypropylcellulose) (HPC)
[11] = dose: 3.12 mg/kg/injection, schedule: Q01DX009 (ip), vehicle: saline
[12] = dose: 6.25 mg/kg/injection, schedule: Q01DX009 (ip), vehicle: saline
[13] = dose: 12.5 mg/kg/injection, schedule: Q01DX009 (ip), vehicle: saline
[14] = dose: 25.0 mg/kg/injection, schedule: Q01DX009 (ip), vehicle: saline
[15] = dose: 50.0 mg/kg/injection, schedule: Q01DX009 (ip), vehicle: saline
[16] = dose: 100.0 mg/kg/injection, schedule: Q01DX009 (ip), vehicle: saline
[17] = dose: 200.0 mg/kg/injection, schedule: Q01DX009 (ip), vehicle: saline

CC(C)(O)/C=C/C(=O)[C@](C)(O)[C@H]1[C@H](O)C[C@@]2(C)[C@@H]3CC=C4[C@@H](C=C(O)C(=O)C4(C)C)[C@]3(C)C(=O)C[C@]12C
T/C (dose: 0.25 mg/kg/injection, schedule: Q01DX005 (ip), vehicle: water): 112 % of control | T/C (dose: 0.25 mg/kg/injection, schedule: Q01DX010 (ip), vehicle: saline): 100 % of control | T/C (dose: 0.5 mg/kg/injection, schedule: Q01DX005 (ip), vehicle: water): 100 % of control | T/C (dose: 0.5 mg/kg/injection, schedule: Q01DX010 (ip), vehicle: saline): 104 % of control | T/C (dose: 1.0 mg/kg/injection, schedule: Q01DX005 (ip), vehicle: water): 105 % of control | T/C (dose: 1.0 mg/kg/injection, schedule: Q01DX010 (ip), vehicle: saline): 109 % of control | T/C (dose: 2.0 mg/kg/injection, schedule: Q01DX005 (ip), vehicle: water): 105 % of control

N/C(C/C(=N/OC(=O)c1ccccc1)OC(=O)c1ccccc1)=N/O
T/C (dose: 100.0 mg/kg/injection, schedule: Q04DX003 (ip), vehicle: saline): 101 % of control | T/C (dose: 200.0 mg/kg/injection, schedule: Q04DX003 (ip), vehicle: saline): 107 % of control | T/C (dose: 400.0 mg/kg/injection, schedule: Q04DX003 (ip), vehicle: saline): 99 % of control

c1ccc2c(c1)ccc1c(-c3ccncc3)n[nH]c12
T/C [1]: 99 % of control | T/C [2]: 88 % of control | T/C (dose: 200.0 mg/kg/injection, schedule: Q01DX009 (ip), vehicle: saline with Tween-80): 87 % of control

CC(=Nc1ccc(S(=O)(=O)c2ccc(N=C(C)N3CCCCC3)cc2)cc1)N1CCCCC1
T/C [3]: 100 % of control | T/C [4]: 97 % of control | T/C [5]: 88 % of control

CC(C)(C)C[C](C)(c1ccccc1)[Sn]([CH3])([CH3])[CH3] (stereo not given)
T/C (dose: 50.0 mg/kg/injection, schedule: Q01DX009 (ip), vehicle: Klucel (hydroxypropylcellulose) (HPC)): 94 % of control | T/C (dose: 100.0 mg/kg/injection, schedule: Q01DX009 (ip), vehicle: Klucel (hydroxypropylcellulose) (HPC)): 102 % of control | T/C (dose: 200.0 mg/kg/injection, schedule: Q01DX009 (ip), vehicle: Klucel (hydroxypropylcellulose) (HPC)): 102 % of control

CN1C(=O)c2ccccc2NC(=O)C12O[C@@H]2c1cccc(O)c1 (stereo not given in full)
T/C (dose: 1.63 mg/kg/injection, schedule: Q01DX005 (ip), vehicle: DMSO): 106 % of control | T/C (dose: 3.25 mg/kg/injection, schedule: Q01DX005 (ip), vehicle: DMSO): 106 % of control | T/C (dose: 6.5 mg/kg/injection, schedule: Q01DX005 (ip), vehicle: DMSO): 113 % of control | T/C (dose: 13.0 mg/kg/injection, schedule: Q01DX005 (ip), vehicle: DMSO): 100 % of control

CCOc1cc(C=Nc2cc(Cl)c(O)c(Cl)c2)ccc1N(CCCl)CCCl
T/C (dose: 3.13 mg/kg/injection, schedule: Q04DX003 (ip), vehicle: saline with Tween-80): 122 % of control | T/C [6]: 218 % of control | T/C (dose: 12.5 mg/kg/injection, schedule: Q04DX003 (ip), vehicle: saline with Tween-80): 168 % of control | T/C (dose: 16.5 mg/kg/injection, schedule: Q04DX003 (ip), vehicle: saline with Tween-80): 171 % of control | T/C [7]: 150 % of control | T/C (dose: 25.0 mg/kg/injection, schedule: Q04DX003 (ip), vehicle: saline with Tween-80): 185 % of control and 200 % of control | T/C (dose: 37.5 mg/kg/injection, schedule: Q04DX003 (ip), vehicle: saline with Tween-80): 204 % of control | T/C (dose: 50.0 mg/kg/injection, schedule: Q04DX003 (ip), vehicle: saline with Tween-80): 90 % of control

Clc1nc[nH]c1Cl
T/C [7]: 109 % of control | T/C [1]: 100 % of control | T/C [2]: 98 % of control

CC1CC2([Si](C)(C)C)C(=O)NC(=O)NC12 (stereo not given)
T/C (dose: 25.0 mg/kg/injection, schedule: Q01DX005 (ip), vehicle: Klucel (hydroxypropylcellulose) (HPC)): 112 % of control | T/C [8]: 103 % of control | T/C [9]: 112 % of control | T/C [10]: 99 % of control

COc1c(OC(C)=O)c(OC(C)=O)cc2c1-c1ccc(OC)c(=O)cc1C(NC(C)=O)CC2 (stereo not given)
T/C (dose: 0.25 mg/kg/injection, schedule: Q01DX005 (ip), vehicle: saline): 117 % of control | T/C (dose: 0.5 mg/kg/injection, schedule: Q01DX005 (ip), vehicle: saline): 123 % of control | T/C (dose: 4.0 mg/kg/injection, schedule: Q01DX005 (ip), vehicle: saline): 155 % of control | T/C (dose: 8.0 mg/kg/injection, schedule: Q01DX005 (ip), vehicle: saline): 163 % of control | T/C (dose: 16.0 mg/kg/injection, schedule: Q01DX005 (ip), vehicle: saline): 172 % of control

OC(/C=C\CC(O)(C(F)(F)F)C(F)(F)F)(C(F)(F)F)C(F)(F)F
T/C [11]: 100 % of control | T/C [12]: 106 % of control | T/C [6]: 91 % of control | T/C [13]: 93 % of control

CCOC(=O)[C]1([Hg][CH3])N=NC(C(=O)OC)=C1C(=O)OC (stereo not given)
T/C (dose: 1.56 mg/kg/injection, schedule: Q01DX009 (ip), vehicle: saline): 90 % of control | T/C [11]: 93 % of control | T/C [12]: 90 % of control | T/C [13]: 93 % of control

c1cncc(CNCc2cccnc2)c1
T/C [14]: 94 % of control | T/C [15]: 110 % of control | T/C [16]: 97 % of control | T/C [17]: 94 % of control

C#CCOC(=O)c1ccc(C(=O)OCC#C)cc1
T/C (dose: 100.0 mg/kg/injection, schedule: Q04DX003 (ip), vehicle: saline with Tween-80): 100 % of control | T/C (dose: 200.0 mg/kg/injection, schedule: Q04DX003 (ip), vehicle: saline with Tween-80): 90 % of control

COc1ccc2c(c1OC)C(=O)OC2C(=O)NCCc1ccc2c(c1)OCO2 (stereo not given)
T/C [8]: 92 % of control | T/C [9]: 92 % of control | T/C [10]: 93 % of control

CCOC(=O)CN(C=O)C(C)c1ccccc1 (stereo not given)
T/C [14]: 114 % of control | T/C [15]: 99 % of control | T/C [16]: 98 % of control | T/C [17]: 99 % of control

CC(C(=O)O)C(C)(C)c1ccccc1 (stereo not given)
T/C (dose: 100.0 mg/kg/injection, schedule: Q01DX001 (ip), vehicle: saline with Tween-80): 100 % of control | T/C (dose: 200.0 mg/kg/injection, schedule: Q01DX001 (ip), vehicle: saline with Tween-80): 99 % of control | T/C (dose: 400.0 mg/kg/injection, schedule: Q01DX001 (ip), vehicle: saline with Tween-80): 105 % of control

CN(C)c1ccc(N=NN=c2n(C)c3ccccc3n2C)c(Cl)c1
T/C (dose: 6.25 mg/kg/injection, schedule: Q01DX005 (ip), vehicle: saline with Tween-80): 103 % of control | T/C (dose: 12.5 mg/kg/injection, schedule: Q01DX005 (ip), vehicle: saline with Tween-80): 106 % of control and 109 % of control | T/C (dose: 25.0 mg/kg/injection, schedule: Q01DX005 (ip), vehicle: saline with Tween-80): 113 % of control and 115 % of control | T/C [3]: 117 % of control

CN(C)CCCNC(=O)c1n[nH]c(=S)[nH]c1=O
T/C [3]: 101 % of control | T/C [4]: 100 % of control | T/C [5]: 95 % of control

Oc1c2ccccc2c(O)c2nc3ccccc3nc12
T/C [15]: 100 % of control | T/C [16]: 99 % of control | T/C [17]: 100 % of control

Oc1cccc(/C=N/N2CCc3ccccc3C2)c1
T/C (dose: 50.0 mg/kg/injection, schedule: Q01DX001 (ip), vehicle: Klucel (hydroxypropylcellulose) (HPC)): 96 % of control | T/C (dose: 100.0 mg/kg/injection, schedule: Q01DX001 (ip), vehicle: Klucel (hydroxypropylcellulose) (HPC)): 100 % of control | T/C (dose: 200.0 mg/kg/injection, schedule: Q01DX001 (ip), vehicle: Klucel (hydroxypropylcellulose) (HPC)): 92 % of control

COc1ccc(C2COc3cc4occc4cc3C2=O)c(OC)c1OC (stereo not given)
T/C (dose: 11.25 mg/kg/injection, schedule: Q01DX005 (ip), vehicle: Klucel (hydroxypropylcellulose) (HPC)): 99 % of control | T/C (dose: 22.5 mg/kg/injection, schedule: Q01DX005 (ip), vehicle: Klucel (hydroxypropylcellulose) (HPC)): 97 % of control | T/C (dose: 45.0 mg/kg/injection, schedule: Q01DX005 (ip), vehicle: Klucel (hydroxypropylcellulose) (HPC)): 95 % of control | T/C (dose: 90.0 mg/kg/injection, schedule: Q01DX005 (ip), vehicle: Klucel (hydroxypropylcellulose) (HPC)): 97 % of control | T/C (dose: 180.0 mg/kg/injection, schedule: Q01DX005 (ip), vehicle: Klucel (hydroxypropylcellulose) (HPC)): 99 % of control
